# Molecular target: T1, COX-2 (Homo sapiens, UniProt P35354)
# T1 construct: purchased Cayman Chemical
# T1 sequence (P35354 18-604): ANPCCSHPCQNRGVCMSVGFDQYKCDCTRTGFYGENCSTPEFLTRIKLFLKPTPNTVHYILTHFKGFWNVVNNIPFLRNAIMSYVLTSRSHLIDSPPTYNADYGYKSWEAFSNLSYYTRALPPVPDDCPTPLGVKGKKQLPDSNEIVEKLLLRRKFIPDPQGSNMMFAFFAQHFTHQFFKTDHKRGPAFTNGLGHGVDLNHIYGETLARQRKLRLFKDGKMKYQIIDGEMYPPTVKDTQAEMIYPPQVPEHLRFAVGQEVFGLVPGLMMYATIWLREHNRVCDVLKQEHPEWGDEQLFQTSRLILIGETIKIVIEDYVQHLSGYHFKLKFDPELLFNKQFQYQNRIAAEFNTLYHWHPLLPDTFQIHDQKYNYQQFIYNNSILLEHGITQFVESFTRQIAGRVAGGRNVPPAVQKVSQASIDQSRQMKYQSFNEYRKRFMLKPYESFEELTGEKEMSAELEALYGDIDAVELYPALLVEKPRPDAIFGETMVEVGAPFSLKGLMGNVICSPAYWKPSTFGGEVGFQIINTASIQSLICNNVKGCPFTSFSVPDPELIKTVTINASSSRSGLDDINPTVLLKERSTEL
# Experiment: Inhibition of COX: arachidonic acid metabolism
# Type: biochemical
# Conditions: 25 nmoles compound with 25 nmoles AA, 250 μL, 2 min
# Procedure: All compound solutions were made to a concentration of 10 mM in DMSO. Three tests were performed on each compound: hydrolysis, to determine the stability of the compound in assay conditions without the enzyme present; metabolism, to determine the stability of the compound with the enzyme present; and inhibition of arachidonic acid (AA) metabolism.
# To test the stability of the compounds in enzyme assay conditions, 25 nmoles of the compound were incubated with 12.5 μl 100 uM hematin in assay buffer (0.1M PH8.0 Tris-HCl, 2 mM phenol, 5 mM EDTA, 0.1% BSA, final volume of 250 μL) for 2 minutes at 25° C. Samples (100 μL) were taken at the start of the assay and after 2 minutes, diluted 1:5 with acetonitrile and centrifuged (20,000 RCF, five minutes, room temperature) to precipitate the proteins. The resulting supernatant was injected onto the HPLC. Calculations for determining the percent compound remaining are described in the following equation: % R=Peak Area(T2)/Peak Area(T0) To determine whether or not the compounds were good substrates for COX enzyme, 25 nmoles of the compound were incubated with 12.5 μl COX enzyme (purchased form Cayman Chemical) and 5 uM hematin in assay buffer (final volume 250 μL). The reaction mixture was treated in the same manner as described above. Concentrations of AA were calculated using external standards. […] Again the reaction mixture was treated in the same manner as described above and the concentrations of AA were calculated using external standards. Percent inhibition was calculated using the following equation: % Inhib.=(AA0-AA2)i/(AA0-AA2)s where (AA0-AA2)i is the amount of arachidonic acid metabolized over 2 minutes with the inhibitor present and (AA0-AA2)s is the amount of arachidonic acid metabolized over 2 minutes when the inhibitor is not present. […] The reaction mixtures were treated as described above and the amount of AA metabolized was calculated. The software package GraphPad Prism was utilized to calculate IC50 and Ki. HPLC Conditions:
# Chromatographic separation was achieved using an Ultrasphere ODS Pre-column (4.6×45 mm) from Beckman. Hardware consisted of a Waters Millennium HPLC system with a 20 μL injection loop. The mobile phase consisted of 8.5% o-phosphoric acid:acetonitrile (3:7), run isocratically at a rate of 1 mL/min and detection at 204 nm. The total run time was 8 minutes with AA at 6.0 minutes.
row,Compound,COX-2 % Inhibition [%]
1,O=C(CCC/C=C\C/C=C\C/C=C\C/C=C\CCCCc1ccccc1)NCC1CC1 [Compound A1],78.4
2,COc1cc(CNC(=O)CCC/C=C\C/C=C\C/C=C\C/C=C\CCCCN=C=S)ccc1O [Compound A12],46.2
3,O=C(CCC/C=C\C/C=C\C/C=C\C/C=C\CCc1ccccc1)Nc1ccc(O)cc1 [Compound A3],77.4
4,COc1cc(CNC(=O)CCC/C=C\C/C=C\C/C=C\C/C=C\CCCCN=[N+]=[N-])ccc1O [Compound A7],42.4

# From US8202893B2, “Cannabinergic lipid ligands” (University of Connecticut, priority 2004, dated 2012)
